Laboratory results published in patent publication US20240024405A1, “COMPOSITIONS OF CASPASE INHIBITORS AND METHODS OF USE THEREOF” (priority 2022, published 2024).
Where a SMILES comes first, the peptide text is derived from it. The star is where a group is joined. Cbz = O=C(OCc1ccccc1)*; CH2F = FC*

Assays:
caspase-6 [1] = type: cell-based
MERS-CoV [2] = tested on: MERS-CoV
SARS-CoV-2 [3] = tested on: SARS-CoV-2
HCoV-229E = type: cell-based
SARS-CoV-1 = type: cell-based
SARS-CoV-2 [4] = tested on: SARS-CoV-2; set-up: species or system Golden Syrian hamsters; conditions: in vivo
MERS-CoV [5] = type: cell-based
rMERS-CoV/TKKA = type: cell-based, MERS-CoV
MERS-CoV [6] = type: cell-based; remark: listed apart in the source
MERS-CoV [7] = type: cell-based, human
MERS-CoV [8] = type: cell-based; remark: listed apart in the source
influenza virus (H1N1) = type: cell-based
MERS-CoV [9] = type: cell-based, human; remark: listed apart in the source
MERS-CoV MA = tested on: MERS-CoV MA; set-up: species or system mice; conditions: in vivo
rMERS-CoV/TKKD = type: cell-based, MERS-CoV
enterovirus A71 = type: cell-based
MERS-CoV [10] = type: cell-based; remark: listed apart in the source
caspase-6 [11] = biological target: T1, caspase-6 (Homo sapiens, UniProt P55212); type: cell-based
T1 construct: expressed in transfected cells
T1 sequence (P55212 24-179 limits assumed): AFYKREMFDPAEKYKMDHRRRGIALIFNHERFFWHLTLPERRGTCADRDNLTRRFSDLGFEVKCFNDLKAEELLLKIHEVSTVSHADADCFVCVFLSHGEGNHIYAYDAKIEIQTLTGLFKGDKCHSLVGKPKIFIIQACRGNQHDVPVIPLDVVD
T1 sequence (P55212 194-293 limits assumed): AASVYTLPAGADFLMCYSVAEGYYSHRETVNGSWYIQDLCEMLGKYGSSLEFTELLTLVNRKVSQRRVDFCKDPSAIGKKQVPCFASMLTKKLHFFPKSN

CN[C@@H]1C[C@H]2O[C@@](C)([C@@H]1OC)n1c3ccccc3c3c4c(c5c6ccccc6n2c5c31)C(=O)NC4 [Staurosporine]
Caspase-6 activity in cell lysate (caspase-6 [1]): activated

z-VAD-fmk
MERS-CoV replication with pan-caspase inhibitor (MERS-CoV [2]): significantly limited | HCoV-OC43 replication with pan-caspase inhibitor (HCoV-OC43): similarly limited | SARS-CoV-2 replication with pan-caspase inhibitor (SARS-CoV-2 [3]): similarly limited | HCoV-229E replication with pan-caspase inhibitor (HCoV-229E): similarly limited | SARS-CoV-1 replication with pan-caspase inhibitor (SARS-CoV-1): similarly limited

CC[C@H](C)[C@H](NC(=O)[C@H](CCC(=O)OC)NC(=O)[C@@H](NC(=O)OCc1ccccc1)C(C)C)C(=O)N[C@@H](CC(=O)OC)C(=O)CF [z-VEID-fmk, Z-Val-Glu(OMe)-Ile-Asp(OMe)-CH2F] (Cbz-VE(OMe)ID(OMe)-CH2F)
IC50 (MERS-CoV [2]): 21.1 µM | Inhibitory effect on MERS-CoV replication across cell types (MERS-CoV [2]): conserved across different cell types exceptVeroE6 cells | MERS-CoV replication (N gene copy) (MERS-CoV [2]): attenuated | Alveolar space immune cells infiltration (SARS-CoV-2 [4]; hamster): dramatically inhibited | Body weight of infected hamsters (SARS-CoV-2 [4]; hamster): significant improvements | Lung damage by histopathological scores (SARS-CoV-2 [4]; hamster): significantly ameliorated | Tissue damage: bronchiolitis, alveolitis and vasculitis (SARS-CoV-2 [4]; hamster): significantly ameliorated | Expression of virus-induced pro-inflammatory cytokines and chemokines in hamster lungs (SARS-CoV-2 [4]): ameliorated | Hamster lung pathology (H&E) (SARS-CoV-2 [4]): markedly improved | Number of viral N-protein positive cells in hamster lungs (SARS-CoV-2 [4]): reduced | SARS-CoV-2 replication in the hamster lungs (SARS-CoV-2 [4]): significantly reduced | HCoV-OC43 replication (N gene copy) (HCoV-OC43): attenuated | IC50 (HCoV-OC43): 30.6 µM | MERS-CoV replication among specific caspase inhibitors (MERS-CoV N-positive cells) (MERS-CoV [5]): most dramatically limited | Replication of rMERS-CoV/TKKA (rMERS-CoV/TKKA): not limited | Antiviral effect of z-VEID-fmk when the IFN pathway is non-functional (MERS-CoV [6]): diminished | MERS-CoV replication in human intestinal organoids (MERS-CoV [7]): inhibited | Inhibition of production of infectious virus particles in human intestinal organoids (MERS-CoV [7]; 100 µM): approximately 80% | Virus replication when inhibitor added during MERS-CoV inoculation (MERS-CoV [8]): did not reduce | H1N1 replication (M gene copy) (influenza virus (H1N1)): did not impact | SARS-CoV-2 replication (RdRp gene copy) (SARS-CoV-2 [3]): attenuated | MERS-CoV nucleocapsid (N) protein and N gene expression in human lung tissues (MERS-CoV [9]): significantly reduced | HCoV-229E replication (N gene copy) (HCoV-229E): attenuated | Expression of pro-inflammatory cytokines and chemokines in mouse lungs (MERS-CoV MA): significantly attenuated | Body weight loss of infected mice (MERS-CoV MA; mouse): largely inhibited | MERS-CoV MA replication in the lungs (MERS-CoV MA; mouse): effectively reduced | Survival of infected hDPP4 KI mice (MERS-CoV MA; mouse): 80% | Replication of rMERS-CoV/TKKD (rMERS-CoV/TKKD): remained effective | Enterovirus A71 replication (VP1 gene copy) (enterovirus A71): did not impact | Viral inhibitory effect in stable caspase-6 knockdown cells (MERS-CoV [10]): largely diminished | Cleavage of MERS-CoV N by co-expressed caspase-6 (caspase-6 [11]): completely abolished | N cleavage in MERS-CoV-infected cells (caspase-6 [11]): similarly inhibited | SARS-CoV-1 replication (N gene copy) (SARS-CoV-1): attenuated
